Test results as given in US20240174637A1, “DEGRADERS OF GRK2 AND USES THEREOF” (Sonata Therapeutics, Inc., priority 2021, published 2024).

How the values were obtained:
[1] = target: T1, GRK2 (Homo sapiens, UniProt P25098); test: ADPGlo GRK2 Inhibition Assay (Example 2); type: biochemical; conditions: ADP-Glo, 10 μM ATP; read-out: ADP Glo Enzymatic GRK2 Assay: IC50 (nM) (Example 2)
T1 sequence (P25098 1-689): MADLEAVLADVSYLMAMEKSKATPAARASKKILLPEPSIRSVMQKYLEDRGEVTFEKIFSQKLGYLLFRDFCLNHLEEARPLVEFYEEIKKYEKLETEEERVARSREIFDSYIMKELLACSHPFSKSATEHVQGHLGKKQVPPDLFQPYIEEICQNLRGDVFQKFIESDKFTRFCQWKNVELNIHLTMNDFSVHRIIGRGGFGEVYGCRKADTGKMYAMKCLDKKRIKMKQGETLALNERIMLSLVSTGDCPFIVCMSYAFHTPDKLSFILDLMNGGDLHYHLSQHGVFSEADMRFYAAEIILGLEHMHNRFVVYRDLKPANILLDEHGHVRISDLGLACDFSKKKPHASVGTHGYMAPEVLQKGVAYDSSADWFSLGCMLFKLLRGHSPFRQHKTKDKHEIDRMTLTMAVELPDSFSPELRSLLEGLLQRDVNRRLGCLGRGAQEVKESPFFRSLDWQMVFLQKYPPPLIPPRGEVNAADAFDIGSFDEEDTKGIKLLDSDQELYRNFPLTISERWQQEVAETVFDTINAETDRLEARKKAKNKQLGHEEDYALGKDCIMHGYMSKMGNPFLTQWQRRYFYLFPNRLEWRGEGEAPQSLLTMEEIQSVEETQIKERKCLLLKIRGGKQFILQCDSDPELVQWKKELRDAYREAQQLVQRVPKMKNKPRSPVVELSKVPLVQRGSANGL
Experimental: Assay: GRK2 (7.5 nM) was incubated with ATP (10 μM) and GRKtide (0.3 mg/mL) in 5 μL of assay buffer (see above) for 180 min at room temperature. HTS was performed using 1 μM compound. Compounds were dissolved in 100% DMSO, serially diluted tree-fold from 100 μM concentration to 46 nM and transferred (50 nL) into assay ready plate.
(§1) Materials: GRK2 was purchased from SignalChem (Cat #A14-10G, Lot #X645-3). Substrate GRKtide was from SignalChem (Cat #G46-58, Lot #R339-6). ADP-Glo Kinase Assay from Promega (Cat #V9102). Assay buffer consisted of 25 mM HEPES (pH7.5), 10 mM MgCl2, 0.01% Tween-20, 1 mM DDT. 384-well white plates were from Greiner Bio-Rad (Item #784075).
HTS protocol: Take 384 well plate with 50 nL of compound in columns 3-22/DMSO solution 1-2,23-24. Add 2.5 μL assay buffer to columns 23 and 24 using Thermo Scientific Multidrop Combi Dispenser. Add 2.5 μL of 2× enzyme solution (15 nM in 1× assay buffer) using Thermo Scientific Multidrop Combi Reagent Dispenser to all columns except of 23 and 24. Incubate for 15 minutes. Fill plate with 2.5 μL of 2× substrate mix (20 μM ATP and 0.6 mg/mL GRKtide in 1× assay buffer) using Thermo Scientific Multidrop Combi Reagent Dispenser. Spin 15 seconds at 1000 rpm and incubate for 180 min at room temperature. Add 5 μL ADP-Glo reagent to all the wells. Spin 15 seconds at 1000 rpm and incubate for 40 min at room temperature. Add 10 μL Detection solution to all the wells. Incubate for 30 min at room temperature. Read plate in Luminescent mode on BMG PheraStar FSX (gain=3600).
Data Analysis: Data were analyzed in GraphPad Prism 8.0.2. Each HTS plate contains compounds in columns 3-22, controls (enzyme, no compound) in columns 1 and 2, and blanks (no enzyme) in columns 23 and 24. HTS percent inhibition was calculated for each compound from the signal in luminescence units and the mean of the plate controls and the mean of the plate blanks using the following equation: % Inhibition=100*(1−((signal−blank mean)/(control mean−blank mean))). At the final stage of data processing, we obtain dose-response curves, tables and SDF-files with the results of screening for each substance.

[2] = system: PAXF1657 EV; test: 7-day cellular proliferation assay (CellTiter-Glo), PAXF1657 EV; type: cell-based; conditions: 168 h, 7-day, read-out: 7-day proliferation assay: IC50 GeoMean (uM) [Cell Line: PAXF1657 EV]
Procedure, shortened: (§2)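 Read-out is CellTiter-Glo luminescence after 7 days of continuous exposure, with compound re-dosed in fresh medium at day 3. Cells were seeded at 500/well and treated across 30 μM-0.0002 μM (10 points, 0.3% DMSO); baseline viability plates were read at compound addition.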

[3] = system: PAXF1657 KO Clone #4; test: 7-day cellular proliferation assay (CellTiter-Glo), PAXF1657 KO Clone #4; type: cell-based; conditions: 168 h, 7-day, read-out: 7-day proliferation assay: IC50 GeoMean (uM) [Cell Line: PAXF1657 KO Clone #4]
Procedure, shortened: as §2

[4] = target: T1, GRK2; test: GRK2 Degradation Assay and Western Blot in PAXF1657 cells; type: cell-based; parameters: endogenous in cells; host or cells: PAXF1657; conditions: for inhibition at 0.3 µM: read-out: % GRK2 degradation at 0.3 uM in PAXF1657 EV (24 hrs); for inhibition at 1 µM: read-out: % GRK2 degradation at 1 uM in PAXF1657 EV (24 hrs); for inhibition at 3 µM: read-out: % GRK2 degradation at 3 uM in PAXF1657 EV (24 hrs)
Procedure, shortened: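 PAXF1657 cells grown to 70% confluency, then treated with compounds at 0–10 μM for 6 to 24 h at 37 °C. Lysates in PBS with 1% NP40 run on SDS-PAGE. GRK2 protein detected by western blot with β-actin as loading reference, using ECL chemiluminescence.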

[5] = target: T1, GRK2; test: Second ADPGlo GRK2 Inhibition Assay (Example 3); type: biochemical; conditions: ADP-Glo, 20 μM ATP; read-out: Second ADPGlo Enzymatic GRK2 Assay: IC50 (nM) (Example 3)
Experimental: Assay: GRK2 (2 nM) was incubated with ATP (20 μM) and GRKtide (1.2 mg/mL) in 11 μL of assay buffer (see above) for 180 min at room temperature. Compounds were dissolved in 100% DMSO, serially diluted 3.16-fold from 100 μM with 10 concentration points and transferred as 100× into assay plate (final compounds concentration in the reaction plate from 1 μM).
as §1, with “of 20” for “of 25”, “(pH7.5), 20” for “(pH7.5), 10”, “Tween-20, 0.05” for “Tween-20, 1”, “from Corning (Cat #4513).” for “from Greiner Bio-Rad (Item #784075).”
HTS protocol: Add 5.5 μL of 2× substrate-enzyme mix into all columns except of 1-2 and 24 of reaction plate. Spin 15 seconds at 200 g. Transfer 1 ul of compounds from the plate with serial dilutions (384 well plate with 22 uL of compound in columns 3-22/DMSO solution 1-2,23-24) to Dilution plate (384 well plate with 49 uL of buffer with 2×40 μM ATP). After mixing transfer 5.5 ul from Dilution plate to Reaction plate (to 5.5 μL of 2× substrate-enzyme mix). Spin 15 seconds at 200 g and incubate for 180 min at room temperature with sealing. Add 3 μL ADP-Glo reagent to all the wells. Spin 15 seconds at 200 g and incubate for 40 min at room temperature. Add 6 μL Detection solution to all the wells. Incubate for 30 min at room temperature. Read plate using ClarioStar Plus (BMG).
Data Analysis: Data were analyzed in GraphPad Prism 5.0.2. Each HTS plate contains compounds in columns 3-22, controls (enzyme, no compound) in column 23, and blanks (no enzyme) in columns 2. HTS percent inhibition was calculated for each compound from the signal in luminescence units and the mean of the plate controls and the mean of the plate blanks using the following equation: % Inhibition=100*(1-(signal-blank mean)/(control mean-blank mean)).

| IC50 [1] [nM] | inhibition at 0.3 µM ([4]; PAXF1657 EV, 24 hrs) [%] | inhibition at 1 µM ([4]; PAXF1657 EV, 24 hrs) [%] | inhibition at 3 µM ([4]; PAXF1657 EV, 24 hrs) [%] | IC50 [5] [nM] | % GRK2 degradation at 0.03 uM in PAXF1657 EV (24 hrs) ([4]; 0.03 uM, PAXF1657 EV, 24 hrs) [%] | % GRK2 degradation at 0.1 uM in PAXF1657 EV (24 hrs) ([4]; 0.1 uM, PAXF1657 EV, 24 hrs) [%] | % GRK2 degradation at 10 uM in PAXF1657 EV (24 hrs) ([4]; 10 uM, PAXF1657 EV, 24 hrs) [%] | GRK2 degradation, dose dependence (FIGS. 1A-1D) ([4]; 24-hour treatment in PAXF1657 cells) | Structure (SMILES) | IC50 [2] [µM] | IC50 [3] [µM] |
| --- | --- | --- | --- | --- | --- | --- | --- | --- | --- | --- | --- |
| < 100 | 36 | 59 | 64 | – | – | – | – | – | Cn1c(CNc2cccc(C(=O)NCc3cccc(OCCCCCCOCCOCC(=O)Nc4cccc5c4CN(C4CCC(=O)NC4=O)C5=O)c3)c2)nnc1-c1ccncn1 (centres unmarked) [Compound D72] | 1 to 10 | 1 to 10 |
| – | -4 | -1 | -7 | < 100 | – | – | – | – | Cc1ncsc1-c1ccc(CNC(=O)[C@@H]2C[C@@H](O)CN2C(=O)[C@@H](NC(=O)CCCOCCOCCOCCCCCCOc2cccc(CNC(=O)c3cccc(NCc4nnc(-c5ccncn5)n4C)c3)c2)C(C)(C)C)cc1 [Compound D77] | < 1 | > 10 |
| < 100 | – | – | – | – | – | – | – | – | Cn1c(CNc2cccc(C(=O)NCc3cccc(OCCCCCCOCCOCCOCCOCC(=O)Nc4cccc5c4CN(C4CCC(=O)NC4=O)C5=O)c3)c2)nnc1-c1ccncn1 (centres unmarked) [Compound D71] | – | – |
| – | 25 | 52 | 64 | < 100 | – | – | – | – | Cn1c(CNc2cccc(C(=O)NCc3cccc(OCCCCCCOCCOCCOCCCC(=O)Nc4cccc5c4CN(C4CCC(=O)NC4=O)C5=O)c3)c2)nnc1-c1ccncn1 (centres unmarked) [Compound D56] | 1 to 10 | > 10 |
| – | 48 | 67 | 76 | < 100 | 15 | 28 | 76 | Dose dependent | Cn1c(CNc2cccc(C(=O)NCc3cccc(OCCCCCCOCCOCCOCCCCCC(=O)Nc4cccc5c4CN(C4CCC(=O)NC4=O)C5)c3)c2)nnc1-c1ccncn1 (centres unmarked) [Compound D73] | 1 to 10 | > 10 |
| – | 2 | 25 | 39 | < 100 | – | – | – | – | Cc1ncsc1-c1ccc(CNC(=O)[C@@H]2C[C@@H](O)CN2C(=O)[C@@H](NC(=O)CCCc2cn(CCCCCCCOc3cccc(CNC(=O)c4cccc(NCc5nnc(-c6ccncn6)n5C)c4)c3)nn2)C(C)(C)C)cc1 [Compound D83] | 1 to 10 | > 10 |
| – | -1 | 28 | 57 | < 100 | – | – | – | – | Cc1ncsc1-c1ccc(CNC(=O)[C@@H]2C[C@@H](O)CN2C(=O)[C@@H](NC(=O)CCCCc2cn(CCCCCCCOc3cccc(CNC(=O)c4cccc(NCc5nnc(-c6ccncn6)n5C)c4)c3)nn2)C(C)(C)C)cc1 [Compound D82] | < 1 | > 10 |
